# Test results published in ChEMBL document CHEMBL3785084, “Rational modification of the lead molecule: Enhancement in the anticancer and dihydrofolate reductase inhibitory activity” (Bioorg Med Chem Lett, 2016).
# Experiments:
# [1] = Cytotoxicity against human OVCAR5 cells assessed as cell growth at 10^-5 M after 48 hrs by sulforhodamine B assay; format: functional; conditions: OVCAR-5, 48 h, read-out: Activity
# [2] = Cytotoxicity against human SF268 cells assessed as cell growth at 10^-5 M after 48 hrs by sulforhodamine B assay; format: functional; conditions: SF-268, 48 h, read-out: Activity
# [3] = Cytotoxicity against human TK10 cells assessed as cell growth at 10^-5 M after 48 hrs by sulforhodamine B assay; format: functional; conditions: TK-10, 48 h, read-out: Activity
# SR = test: Cytotoxicity against human SR cells assessed as cell growth at 10^-5 M after 48 hrs by sulforhodamine B assay; format: functional; conditions: read-out: Activity
# SN12C = test: Cytotoxicity against human SN12C cells assessed as cell growth at 10^-5 M after 48 hrs by sulforhodamine B assay; format: functional; conditions: read-out: Activity
# A498 = test: Cytotoxicity against human A498 cells assessed as cell growth at 10^-5 M after 48 hrs by sulforhodamine B assay; format: functional; conditions: A498, 48 h, read-out: Activity
# [4] = Cytotoxicity against human HL-60(TB) cells assessed as cell growth at 10^-5 M after 48 hrs by sulforhodamine B assay; format: functional; conditions: HL-60, 48 h, read-out: Activity
# [5] = Cytotoxicity against human BT549 cells assessed as cell growth at 10^-5 M after 48 hrs by sulforhodamine B assay; format: functional; conditions: BT-549, 48 h, read-out: Activity
# SK-MEL-5 = test: Cytotoxicity against human SK-MEL-5 cells assessed as cell growth at 10^-5 M after 48 hrs by sulforhodamine B assay; format: functional; conditions: SK-MEL-5, 48 h, read-out: Activity
# [6] = Cytotoxicity against human RXF393 cells assessed as cell growth at 10^-5 M after 48 hrs by sulforhodamine B assay; format: functional; conditions: RXF 393, 48 h, read-out: Activity
# NCI-H226 = test: Cytotoxicity against human NCI-H226 cells assessed as cell growth at 10^-5 M after 48 hrs by sulforhodamine B assay; format: functional; conditions: NCI-H226, 48 h, read-out: Activity
# [7] = Cytotoxicity against human OVCAR4 cells assessed as cell growth at 10^-5 M after 48 hrs by sulforhodamine B assay; format: functional; conditions: OVCAR-4, 48 h, read-out: Activity
# M14 = test: Cytotoxicity against human M14 cells assessed as cell growth at 10^-5 M after 48 hrs by sulforhodamine B assay; format: functional; conditions: M14, 48 h, read-out: Activity
# MDA-MB-435 = test: Cytotoxicity against human MDA-MB-435 cells assessed as cell growth at 10^-5 M after 48 hrs by sulforhodamine B assay; format: functional; conditions: MDA-MB-435, 48 h, read-out: Activity
# [8] = Cytotoxicity against human OVCAR8 cells assessed as cell growth at 10^-5 M after 48 hrs by sulforhodamine B assay; format: functional; conditions: OVCAR-8, 48 h, read-out: Activity
# [9] = Cytotoxicity against human HOP92 cells assessed as cell growth at 10^-5 M after 48 hrs by sulforhodamine B assay; format: functional; conditions: HOP-92, 48 h, read-out: Activity
# [10] = Cytotoxicity against human SNB19 cells assessed as cell growth at 10^-5 M after 48 hrs by sulforhodamine B assay; format: functional; conditions: SNB-19, 48 h, read-out: Activity
# [11] = Cytotoxicity against human SF539 cells assessed as cell growth at 10^-5 M after 48 hrs by sulforhodamine B assay; format: functional; conditions: SF-539, 48 h, read-out: Activity
# MDA-MB-231 = test: Cytotoxicity against human MDA-MB-231 cells assessed as cell growth at 10^-5 M after 48 hrs by sulforhodamine B assay; format: functional; conditions: MDA-MB-231, 48 h, read-out: Activity
# [12] = Cytotoxicity against human OVCAR3 cells assessed as cell growth at 10^-5 M after 48 hrs by sulforhodamine B assay; format: functional; conditions: OVCAR-3, 48 h, read-out: Activity
# [13] = Cytotoxicity against human SW620 cells assessed as cell growth at 10^-5 M after 48 hrs by sulforhodamine B assay; format: functional; conditions: SW-620, 48 h, read-out: Activity
# [14] = Cytotoxicity against human UACC257 cells assessed as cell growth at 10^-5 M after 48 hrs by sulforhodamine B assay; format: functional; conditions: UACC-257, 48 h, read-out: Activity
# ACHN = test: Cytotoxicity against human ACHN cells assessed as cell growth at 10^-5 M after 48 hrs by sulforhodamine B assay; format: functional; conditions: read-out: Activity
# [15] = Cytotoxicity against human PC3 cells assessed as cell growth at 10^-5 M after 48 hrs by sulforhodamine B assay; format: functional; conditions: PC-3, 48 h, read-out: Activity
# MDA-MB-468 = test: Cytotoxicity against human MDA-MB-468 cells assessed as cell growth at 10^-5 M after 48 hrs by sulforhodamine B assay; format: functional; conditions: MDA-MB-468, 48 h, read-out: Activity
# [16] = Cytotoxicity against human SKOV3 cells assessed as cell growth at 10^-5 M after 48 hrs by sulforhodamine B assay; format: functional; conditions: SK-OV-3, 48 h, read-out: Activity
# [17] = Cytotoxicity against human MOLT4 cells assessed as cell growth at 10^-5 M after 48 hrs by sulforhodamine B assay; format: functional; conditions: MOLT-4, 48 h, read-out: Activity
# Dihydrofolate reductase = target: T1, Dihydrofolate reductase (Homo sapiens, UniProt P00374); test: Inhibition of human DHFR assessed as conversion of dihydrofolic acid to tetrahydrfolic acid by enzyme immunoassay in presence of NADPH
# T1 sequence (P00374 whole entry): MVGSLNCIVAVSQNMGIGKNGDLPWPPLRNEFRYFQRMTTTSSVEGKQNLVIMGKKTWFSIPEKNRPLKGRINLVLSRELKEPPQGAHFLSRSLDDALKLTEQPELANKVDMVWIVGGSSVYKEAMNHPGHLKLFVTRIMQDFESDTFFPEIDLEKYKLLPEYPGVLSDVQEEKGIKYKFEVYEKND
# [18] = Cytotoxicity against human Hs 578T cells assessed as cell growth at 10^-5 M after 48 hrs by sulforhodamine B assay; format: functional; conditions: read-out: Activity
# [19] = Cytotoxicity against human NCI-ADR-RES cells assessed as cell growth at 10^-5 M after 48 hrs by sulforhodamine B assay; format: functional; conditions: read-out: Activity
# [20] = Cytotoxicity against human LOXIMVI cells assessed as cell growth at 10^-5 M after 48 hrs by sulforhodamine B assay; format: functional; conditions: LOX IMVI, read-out: Activity
# EKVX = test: Cytotoxicity against human EKVX cells assessed as cell growth at 10^-5 M after 48 hrs by sulforhodamine B assay; format: functional; conditions: read-out: Activity
# SK-MEL-2 = test: Cytotoxicity against human SK-MEL-2 cells assessed as cell growth at 10^-5 M after 48 hrs by sulforhodamine B assay; format: functional; conditions: SK-MEL-2, 48 h, read-out: Activity
# HT-29 = test: Cytotoxicity against human HT-29 cells assessed as cell growth at 10^-5 M after 48 hrs by sulforhodamine B assay; format: functional; conditions: HT-29, 48 h, read-out: Activity
# [21] = Cytotoxicity against human SNB75 cells assessed as cell growth at 10^-5 M after 48 hrs by sulforhodamine B assay; format: functional; conditions: SNB-75, 48 h, read-out: Activity
# [22] = Cytotoxicity against human UO31 cells assessed as cell growth at 10^-5 M after 48 hrs by sulforhodamine B assay; format: functional; conditions: UO-31, 48 h, read-out: Activity
SMILES,growth at 10 µM [1] [%],growth at 10 µM [2] [%],growth at 10 µM [3] [%],growth at 10 µM (SR) [%],growth at 10 µM (SN12C) [%],growth at 10 µM (A498) [%],growth at 10 µM [4] [%],growth at 10 µM [5] [%],growth at 10 µM (SK-MEL-5) [%],growth at 10 µM [6] [%],growth at 10 µM (NCI-H226) [%],growth at 10 µM [7] [%],growth at 10 µM (M14) [%],growth at 10 µM (MDA-MB-435) [%],growth at 10 µM [8] [%],growth at 10 µM [9] [%],growth at 10 µM [10] [%],growth at 10 µM [11] [%],growth at 10 µM (MDA-MB-231) [%],growth at 10 µM [12] [%],also measured
O=C1Nc2ccccc2/C1=C/c1cn(CC(O)Cn2cc(/C=C3\C(=O)Nc4ccccc43)c3ccccc32)c2ccccc12 (stereo not drawn),-34.1,-62,-15.1,-2.94,-53.6,-73.2,-10.2,-55.3,-80.2,-90.8,-74.8,-51.7,-81.4,-87.6,1.35,-73.9,-43,-77.7,-80,-85.1,growth at 10 µM [13]: -60.4%; growth at 10 µM [14]: -51%; growth at 10 µM (ACHN): -68.4%; growth at 10 µM [15]: -86.3%; growth at 10 µM (MDA-MB-468): -84.8%; growth at 10 µM [16]: -38.2%; growth at 10 µM [17]: -29.4%; IC50 (Dihydrofolate reductase): 30 nM; Ki (Dihydrofolate reductase): 5.83 nM; growth at 10 µM [18]: -22.2%; growth at 10 µM [19]: 31.8%; growth at 10 µM [20]: -84.5%; growth at 10 µM (EKVX): -62.3%; growth at 10 µM (SK-MEL-2): -57.6%; growth at 10 µM (HT-29): -20.2%; growth at 10 µM [21]: -95.9%; growth at 10 µM [22]: -9.18%
O=C1NC(=O)C(=Cc2cn(CC(O)Cn3cc(C=C4C(=O)NC(=O)NC4=O)c4ccccc43)c3ccccc23)C(=O)N1,109,93.4,105,96.9,107,106,107,82.6,101,89.1,108,100,98.7,109,117,101,103,108,105,109,growth at 10 µM [13]: 102%; growth at 10 µM [14]: 110%; growth at 10 µM (ACHN): 105%; growth at 10 µM [15]: 93.7%; growth at 10 µM (MDA-MB-468): 96.7%; growth at 10 µM [16]: 102%; growth at 10 µM [17]: 110%; IC50 (Dihydrofolate reductase): 5000 nM; growth at 10 µM [18]: 108%; growth at 10 µM [19]: 99.5%; growth at 10 µM [20]: 98%; growth at 10 µM (EKVX): 101%; growth at 10 µM (SK-MEL-2): 113%; growth at 10 µM (HT-29): 88.3%; growth at 10 µM [21]: 90.2%; growth at 10 µM [22]: 86%
